Experimental data: patent US12274684B2, “Treatment of vasculopathy with prostacyclin and mesenchymal stem cells” (United Therapeutics Corporation, priority 2013, dated 2025)
Values joined by “and” are separate entries in the source; they are usually repeats but may differ in a detail not shown here. Identical values can stand only once.

System: human bone marrow MSC
Experiment: Microarray gene expression analysis of MSC (Illumina Human HT12 Expression BeadChip)
Assay type: cell-based
Details: 24 h
Description: Human bone marrow MSC were expanded and seeded into six (6) T225 flasks using standard growth medium (Table 1). At 95-99% confluency, cells were thoroughly washed with PBS. Three (3) flasks were replenished with basal media containing 250 μg/mL treprostinil, (+)Tre, and the remaining three (3) flasks were replenished with unsupplemented basal media, (−)Tre. After 24 hours of culture, representative images were captured from (+) Tre and (−) Tre cultures. Conditioned media was collected from each replicate, divided into two samples of appropriate volumes, and analyzed separately for: 1) secreted proteins (Myriad RBM InflammationMAP® 1.0) and 2) exosome RNA content. Cells were lysed directly from culture flasks, processed for total RNA isolation, and analyzed for gene expression by microarray (Illumina Human HT12 Expression BeadChip). Microarray gene expression analysis was also performed on MSC from cultures without (−) or with (+) 250 ug/mL treprostinil. Three (3) biological replicates from each condition were analyzed. Of the 77,612 sequences identified among all replicates, only 24,273 were detected above the arbitrary background of 50 counts. 2,984 RNA sequences were unique to Tre(−) cultures, while 1,781 RNA sequences were unique to Tre(+) cultures (panel A). Genes detected in both conditions were further analyzed for differential expression (panel). […] Genes that are expressed only in Tre(−) cultures (that is to say, completely turned off in the Tre(+) cultures) are shown in Table 5.

## CCCCC[C@H](O)CC[C@@H]1[C@H]2Cc3cccc(OCC(=O)O)c3C[C@H]2C[C@H]1O [treprostinil]
250 μg/mL
  ACTN1 (NM_001130005) Fold Change, decrease in Tre(+) vs Tre(−): 12.7 fold
  ANGPT1 (NM_001146) Fold Change, decrease in Tre(+) vs Tre(−): 14.6 fold
  ANK3 (NM_001204403) Fold Change, decrease in Tre(+) vs Tre(−): 14.2 fold
  ANLN (NM_018685) Fold Change, decrease in Tre(+) vs Tre(−): 11.7 fold
  C11orf96 (NM_001145033) Fold Change, increase in Tre(+) vs Tre(−): 12.0 fold
  C13orf33 (NM_032849) Fold Change, increase in Tre(+) vs Tre(−): 21.0 fold
  CD55 (NM_000574) Fold Change, increase in Tre(+) vs Tre(−): 21.5 fold
  CD55 (NM_001114752) Fold Change, increase in Tre(+) vs Tre(−): 13.2 fold
  CELF1 (NM_001172640) Fold Change, decrease in Tre(+) vs Tre(−): 10.9 fold
  COL6A3 (NM_004369) Fold Change, decrease in Tre(+) vs Tre(−): 11.7 fold
  COL21A1 (NM_030820) Fold Change, decrease in Tre(+) vs Tre(−): 27.4 fold
  CPA4 (NM_016352) Fold Change, decrease in Tre(+) vs Tre(−): 12.0 fold
  CTGF (NM_001901) Fold Change, decrease in Tre(+) vs Tre(−): 31.1 fold
  CXCL12 (NM_199168) Fold Change, decrease in Tre(+) vs Tre(−): 15.8 fold
  DDAH1 (NM_001134445) Fold Change, decrease in Tre(+) vs Tre(−): 12.7 fold
  DKFZp547J0510 (CDNA FLJ42650 fis, clone BRACE3027478) Fold Change, decrease in Tre(+) vs Tre(−): 13.0 fold
  DUSP1 (NM_004417) Fold Change, increase in Tre(+) vs Tre(−): 12.9 fold
  EPB41L2 (NM_001199389) Fold Change, decrease in Tre(+) vs Tre(−): 11.2 fold
  GDF5 (NM_000557) Fold Change, decrease in Tre(+) vs Tre(−): 12.5 fold
  GDF15 (NM_004864) Fold Change, increase in Tre(+) vs Tre(−): 32.1 fold
  GPRC5A (NM_003979) Fold Change, increase in Tre(+) vs Tre(−): 13.2 fold
  HSD11B1 (NM_005525) Fold Change, increase in Tre(+) vs Tre(−): 15.4 fold
  IDH1 (NM_005896) Fold Change, increase in Tre(+) vs Tre(−): 13.1 fold
  IER3 (NM_003897) Fold Change, increase in Tre(+) vs Tre(−): 22.5 fold
  IGFBP1 (NM_000596) Fold Change, increase in Tre(+) vs Tre(−): 118.2 fold
  IL6 (NM_000600) Fold Change, increase in Tre(+) vs Tre(−): 109.5 fold
  ISLR (NM_005545) Fold Change, decrease in Tre(+) vs Tre(−): 10.1 fold
  LIPG (NM_006033) Fold Change, increase in Tre(+) vs Tre(−): 13.2 fold
  LMOD1 (NM_012134) Fold Change, decrease in Tre(+) vs Tre(−): 26.4 fold
  MEST (NM_002402) Fold Change, decrease in Tre(+) vs Tre(−): 15.1 fold
  MEST (NM_177525) Fold Change, decrease in Tre(+) vs Tre(−): 11.9 fold
  METTL7A (NM_014033) Fold Change, decrease in Tre(+) vs Tre(−): 11.9 fold
  MXRA5 (NM_015419) Fold Change, decrease in Tre(+) vs Tre(−): 32.6 fold
  NR4A2 (NM_006186) Fold Change, increase in Tre(+) vs Tre(−): 12.5 fold
  OLFML1 (NM_198474) Fold Change, decrease in Tre(+) vs Tre(−): 12.4 fold
  OLFML2B (NM_015441) Fold Change, decrease in Tre(+) vs Tre(−): 20.8 fold
  PALLD (NM_001166109) Fold Change, decrease in Tre(+) vs Tre(−): 13.0 fold
  PALLD (NM_001166110) Fold Change, increase in Tre(+) vs Tre(−): 13.3 fold
  PDE5A (NM_033430) Fold Change, decrease in Tre(+) vs Tre(−): 15.2 fold
  PITPNC1 (NM_181671) Fold Change, increase in Tre(+) vs Tre(−): 16.0 fold
  PLIN2 (NM_001122) Fold Change, increase in Tre(+) vs Tre(−): 47.0 fold
  PRELP (NM_002725) Fold Change, decrease in Tre(+) vs Tre(−): 12.9 fold
  PRKAG2 (NM_024429) Fold Change, increase in Tre(+) vs Tre(−): 78.6 fold
  PTP4A1 (NM_003463) Fold Change, increase in Tre(+) vs Tre(−): 11.8 fold
  RCAN1 (NM_203418) Fold Change, increase in Tre(+) vs Tre(−): 10.9 fold
  RCAN2 (NM_001251974) Fold Change, decrease in Tre(+) vs Tre(−): 11.6 fold
  RND3 (NM_005168) Fold Change, increase in Tre(+) vs Tre(−): 12.9 fold
  S100A4 (NM_002961) Fold Change, decrease in Tre(+) vs Tre(−): 10.5 fold
  SAT1 (transcript variant 2, non-coding RNA) Fold Change, increase in Tre(+) vs Tre(−): 13.5 fold
  SCG2 (NM_003469) Fold Change, increase in Tre(+) vs Tre(−): 21.3 fold
  SIK1 (NM_173354) Fold Change, increase in Tre(+) vs Tre(−): 20.3 fold
  SLC2A12 (NM_145176) Fold Change, decrease in Tre(+) vs Tre(−): 12.2 fold
  SLC3A2 (NM_001013251) Fold Change, increase in Tre(+) vs Tre(−): 10.5 fold
  SLC6A15 (NM_182767) Fold Change, increase in Tre(+) vs Tre(−): 23.7 fold
  SLC14A1 (NM_015865) Fold Change, decrease in Tre(+) vs Tre(−): 18.5 fold
  SREBF1 (NM_004176) Fold Change, increase in Tre(+) vs Tre(−): 11.5 fold
  SYNPO2 (NM_001128933) Fold Change, decrease in Tre(+) vs Tre(−): 24.6 fold
  VEGFA (NM_001025370) Fold Change, increase in Tre(+) vs Tre(−): 13.5 fold
  VEGFA (NM_001171626) Fold Change, increase in Tre(+) vs Tre(−): 11.5 fold
Tre(+) 250 μg/mL
  ANGPTL4 (NM_139314) expression, Rep 1-3: 1570 counts and 2337 counts and 1371 counts
  ANLN (NM_018685) expression, Rep 1-3: 67 counts and 68 counts and 37 counts
